In patent US20250049036A1 (priority 2021, published 2025):

Key:
Botrytis cinerea [1] = experiment: Botrytis cinerea (gray mold) mycelial radial growth on potato dextrose agar; type: cell-based; conditions: 168 h, 22° C., seven days, read-out: control compared to the untreated check
Method: The compounds were dissolved in 0.3% dimethyl sulfoxide and then added to potato dextrose agar medium just prior to dispensing it into petri dishes. 5 mL medium, with the compound in the desired concentration, was dispensed into 60 mm sterile petri-plates. After solidification, each plate was seeded with a 5 mm size mycelial disc taken from the periphery of an actively growing virulent culture plate. The plates were incubated in growth chambers at 22° C. temperature and 90% relative humidity for seven days and the radial growth was measured and compared to the one of the untreated control.

Parastagonospora nodorum = Parastagonospora nodorum (PARANO) spore growth inhibition in liquid medium, 96-well microtiter plate, OD 600; type: cell-based; conditions: spore suspension in PDB liquid medium, 18° C., 5-6 days, OD at 600, read-out: control compared to the untreated check
How it was run: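 Read-out is percent growth inhibition from OD at 600 after 5-6 days at 18° C. Compounds, dissolved in DMSO, were diluted in potato dextrose broth and combined in equal volume with a 10^5 spores/ml suspension of PARANO.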

Pyricularia oryzae = experiment: microbe, parasite or virus in culture; type: cell-based; conditions: 168 h, read-out: control compared to the untreated check
Venturia Inequalis = experiment: Venturia inequalis (VENTIN) spore growth inhibition in liquid medium, 96-well microtiter plate, OD 600; type: cell-based; conditions: spore suspension in PDB liquid medium, 18° C., 15-18 days, OD at 600, read-out: control compared to the untreated check
Method: Potato dextrose (PDB) liquid medium containing a VENTIN (10^5 spores/ml) spore suspension was prepared. For the inhibition assay, each test compound was solved in dimethyl sulfoxide. 100 μl of the test compound in media-solution was added to a 96-well microtiter plate, consequently, the same volume (100 μl) of spore suspension was added to the well making the final test concentrations and the treated plate was incubated at 18° C. for 15-18 days. The growth inhibition was evaluated by measuring the OD at 600. Percent inhibition was calculated with the below formula: […]

Botrytis cinerea [2] = experiment: Botrytis cinerea liq. (BOTRCI) spore growth inhibition in liquid medium, 96-well microtiter plate, OD 405 nm; type: cell-based; conditions: spore suspension in YBA liquid medium, 22° C., 5-6 days, OD at 405 nm, read-out: control compared to the untreated check
Method: Yeast bacterial peptone and sodium acetate (YBA) liquid medium containing a BOTRCI (10^4 spores/ml) spore suspension was prepared. For the inhibition assay, each test compound was solved in dimethyl sulfoxide. 100 μl of the test compound in media-solution was added to a 96-well microtiter plate, consequently, the same volume (100 μl) of spore suspension was added to the well making the final test concentrations and the plate was incubated at 22° C. for 5-6 days. The growth inhibition was evaluated by measuring the OD at 405 nm. Percent inhibition was calculated with the below formula:
Where T=treatment, C=control, and B=blank

Phakopsora pachyrhizi = Phakopsora pachyrhizi test on soybean, preventive, greenhouse; type: in vivo; conditions: preventive spray on soybean, inoculated one day after treatment, read-out: control (efficacy, disease severity) compared to the untreated check
How it was run: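 Greenhouse-grown young soybean plants were sprayed with compound (2% DMSO/acetone, emulsifier in water) at the stated rate. One day later they were inoculated with 2×10^5 P. pachyrhizi inoculum and held at 22-24 °C, 80-90% relative humidity for disease development.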

Phytophthora infestans = experiment: microbe, parasite or virus in culture; type: cell-based; conditions: 168 h, read-out: control compared to the untreated check
Botrytis cinerea [3] = experiment: Botrytis cinerea test on tomato, preventive, greenhouse; type: in vivo; conditions: preventive spray on bean/chili plants (heading: tomato), inoculated one day after treatment, read-out: control (efficacy, disease severity) compared to the untreated check
Colletotrichum capsici = Colletotrichum capsici (anthracnose) mycelial radial growth on potato dextrose agar; type: cell-based; conditions: Colletotrichum truncatum, 168 h, 25° C., seven days, read-out: control compared to the untreated check
How it was run: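 Compounds in 0.3% DMSO were mixed into potato dextrose agar, and each plate was seeded with a 5 mm mycelial disc from an actively growing culture. Plates were incubated at 25° C and 60% relative humidity for seven days. Radial growth was compared with untreated control.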

C=C(C)CC(C)(COc1ccccc1F)NC(=O)c1cnc2ccsc2c1 (centres unmarked) [Compound 159, N-(1-(2-fluorophenoxy)-2,4-dimethylpent-4-en-2-yl)thieno[3,2-b] pyridine-6-carboxamide]
≥ 70%: inhibition of growth at 300 ppm (Botrytis cinerea [1]) | inhibition of growth at 300 ppm (Parastagonospora nodorum)

CC(C)(COC(=O)c1ccccc1C(F)(F)F)NC(=O)c1cnc2ccsc2c1 [Compound 161, 2-methyl-2-(thieno[3,2-b]pyridine-6-carboxamido)propyl 2-(trifluoromethyl)benzoate]
≥ 70%: inhibition of growth at 300 ppm (Pyricularia oryzae) | inhibition of growth at 300 ppm (Venturia Inequalis)

Cn1ccc2cc(C(=O)NC3(C)Cc4ccccc4C3)cnc21 [Compound 78, 1-methyl-N-(2-methyl-2,3-dihydro-1H-inden-2-yl)-1H-pyrrolo[2,3-b] pyridine-5-carboxamide]
≥ 70%: inhibition of growth at 300 ppm (Botrytis cinerea [1]) | inhibition of growth at 300 ppm (Parastagonospora nodorum) | inhibition of growth at 300 ppm (Botrytis cinerea [2])

Cc1ccccc1C(=O)OCC(C)(C)NC(=O)c1cnc2c(c1)CCC2 [Compound 149, 2-(6,7-dihydro-5H-cyclopenta[b]pyridine-3-carboxamido)-2-methylpropyl 2-methylbenzoate]
≥ 70%: inhibition of growth at 300 ppm (Botrytis cinerea [1]) | inhibition of growth at 300 ppm (Parastagonospora nodorum) | inhibition of growth at 300 ppm (Botrytis cinerea [2])

COc1ccccc1CC(C)(C)NC(=O)c1cnc2c(ccn2C)c1 [Compound 49, N-(1-(2-methoxyphenyl)-2-methylpropan-2-yl)-1-methyl-1H-pyrrolo[2,3-b]pyridine-5-carboxamide]
≥ 70%: inhibition of growth at 300 ppm (Venturia Inequalis) | pest or weed control at 500 ppm (Phakopsora pachyrhizi)

COc1nc2[nH]ccc2cc1C(=O)NC(C)(Cc1ccccc1)CC(C)C (centres unmarked) [Compound 89, N-(2,4-dimethyl-1-phenylpentan-2-yl)-6-methoxy-1H-pyrrolo[2,3-b]pyridine-5-carboxamide]
≥ 70%: inhibition of growth at 300 ppm (Botrytis cinerea [1]) | inhibition of growth at 300 ppm (Botrytis cinerea [2]) | pest or weed control at 500 ppm (Phakopsora pachyrhizi)

Cn1cc(Br)c2cc(C(=O)NC(C)(C)COCc3ccccc3F)cnc21 [Compound 194, 3-bromo-N-(1-((2-fluorobenzyl)oxy)-2-methylpropan-2-yl)-1-methyl-1H-pyrrolo[2,3-b]pyridine-5-carboxamide]
≥ 70%: inhibition of growth at 300 ppm (Botrytis cinerea [1]) | inhibition of growth at 300 ppm (Botrytis cinerea [2])

COc1ccccc1CC(C)(C)NC(=O)c1cnc2c(c1)c(F)cn2C [Compound 72, 3-fluoro-N-(1-(2-methoxyphenyl)-2-methylpropan-2-yl)-1-methyl-1H-pyrrolo[2,3-b]pyridine-5-carboxamide]
≥ 70%: inhibition of growth at 300 ppm (Botrytis cinerea [1]) | inhibition of growth at 300 ppm (Botrytis cinerea [2])

CC(C)CC(C)(Cc1ccccc1)NC(=O)c1cnc2[nH]c(=O)oc2c1 (centres unmarked) [Compound 98, N-(2,4-dimethyl-1-phenylpentan-2-yl)-2-oxo-2,3-dihydrooxazolo[4,5-b] pyridine-6-carboxamide]
≥ 70%: inhibition of growth at 300 ppm (Pyricularia oryzae) | inhibition of growth at 300 ppm (Botrytis cinerea [1]) | inhibition of growth at 300 ppm (Phytophthora infestans) | inhibition of growth at 300 ppm (Botrytis cinerea [2]) | pest or weed control at 500 ppm (Botrytis cinerea [3])

CC(C)(COCc1ccccc1F)NC(=O)c1cnc2ccsc2c1 [Compound 189]
≥ 70%: inhibition of growth at 300 ppm (Pyricularia oryzae) | inhibition of growth at 300 ppm (Botrytis cinerea [1]) | inhibition of growth at 300 ppm (Botrytis cinerea [2])

CC(C)(COC(=O)c1ccccc1C(F)(F)F)NC(=O)c1cnc2c(c1)CCC2 [Compound 148, 2-(6,7-dihydro-5H-cyclopenta[b]pyridine-3-carboxamido)-2-methylpropyl 2-(trifluoromethyl)benzoate]
≥ 70%: inhibition of growth at 300 ppm (Botrytis cinerea [1]) | inhibition of growth at 300 ppm (Botrytis cinerea [2])

Cc1cc2cc(C(=O)NC(C)(C)C(C)(C)c3ccccc3)cnc2n1C [Compound 100, N-(2,3-dimethyl-3-phenylbutan-2-yl)-1,2-dimethyl-1H-pyrrolo[2,3-b]pyridine-5-carboxamide]
≥ 70%: inhibition of growth at 300 ppm (Pyricularia oryzae) | inhibition of growth at 300 ppm (Botrytis cinerea [1]) | inhibition of growth at 300 ppm (Parastagonospora nodorum) | inhibition of growth at 300 ppm (Botrytis cinerea [2]) | pest or weed control at 500 ppm (Botrytis cinerea [3])

Cn1ccc2cc(C(=O)NC(C)(C)COC(=O)c3ccccc3C(F)(F)F)cnc21 [Compound 167, 2-methyl-2-(1-methyl-1H-pyrrolo[2,3-b]pyridine-5-carboxamido)propyl 2-(trifluoromethyl)benzoate]
≥ 70%: inhibition of growth at 300 ppm (Venturia Inequalis)

Cn1ccc2cc(C(=O)NC(C)(C)COc3ccc(F)cn3)cnc21 [Compound 230, N-(1-((5-fluoropyridin-2-yl)oxy)-2-methylpropan-2-yl)-1-methyl-1H-pyrrolo[2,3-b]pyridine-5-carboxamide]
≥ 70%: inhibition of growth at 300 ppm (Colletotrichum capsici) | inhibition of growth at 300 ppm (Phytophthora infestans) | inhibition of growth at 300 ppm (Parastagonospora nodorum) | inhibition of growth at 300 ppm (Botrytis cinerea [2])

CC(C)(C#N)NC(=O)c1cnc2ccsc2c1 [Compound 106, N-(2-cyanopropan-2-yl)thieno[3,2-b] pyridine-6-carboxamide]
≥ 70%: inhibition of growth at 300 ppm (Botrytis cinerea [1]) | inhibition of growth at 300 ppm (Parastagonospora nodorum) | inhibition of growth at 300 ppm (Botrytis cinerea [2]) | pest or weed control at 500 ppm (Botrytis cinerea [3]) | pest or weed control at 500 ppm (Phakopsora pachyrhizi)

CC(C)(NC(=O)c1cnc2ccsc2c1)C(O)Cc1ccccc1 (centres unmarked) [Compound 105, N-(3-hydroxy-2-methyl-4-phenylbutan-2-yl)thieno[3,2-b] pyridine-6-carboxamide]
≥ 70%: inhibition of growth at 300 ppm (Botrytis cinerea [1]) | inhibition of growth at 300 ppm (Phytophthora infestans) | inhibition of growth at 300 ppm (Parastagonospora nodorum) | inhibition of growth at 300 ppm (Botrytis cinerea [2])

CC(C)(COCc1ccccc1F)NC(=O)c1cnc2c(c1)CCC2 [Compound 190, N-(1-((2-fluorobenzyl)oxy)-2-methylpropan-2-yl)-6,7-dihydro-5H-cyclopenta[b]pyridine-3-carboxamide]
≥ 70%: inhibition of growth at 300 ppm (Botrytis cinerea [1]) | inhibition of growth at 300 ppm (Colletotrichum capsici) | inhibition of growth at 300 ppm (Parastagonospora nodorum) | inhibition of growth at 300 ppm (Botrytis cinerea [2])

CON(C(=O)c1cc2c(nc1Cl)CCC2)C(C)Cc1ccccc1F (centres unmarked) [Compound 254, 2-chloro-N-(1-(2-fluorophenyl)propan-2-yl)-N-methoxy-6,7-dihydro-5H-cyclopenta[b]pyridine-3-carboxamide]
≥ 70%: inhibition of growth at 300 ppm (Pyricularia oryzae) | inhibition of growth at 300 ppm (Botrytis cinerea [1]) | inhibition of growth at 300 ppm (Parastagonospora nodorum) | inhibition of growth at 300 ppm (Botrytis cinerea [2])

CC(C)CC(C)(Cc1ccccc1)NC(=O)c1cnc2c(c1)c(C1CC1)cn2C (centres unmarked) [Compound 55, 3-cyclopropyl-N-(2,4-dimethyl-1-phenylpentan-2-yl)-1-methyl-1H-pyrrolo[2,3-b]pyridine-5-carboxamide]
≥ 70%: inhibition of growth at 300 ppm (Botrytis cinerea [1]) | inhibition of growth at 300 ppm (Botrytis cinerea [2]) | pest or weed control at 500 ppm (Botrytis cinerea [3])

Cn1ccc2cc(C(=O)NC(C)(C)COCc3ccccc3F)cnc21 [Compound 187, N-(1-((2-fluorobenzyl)oxy)-2-methylpropan-2-yl)-1-methyl-1H-pyrrolo[2,3-b]pyridine-5-carboxamide]
≥ 70%: inhibition of growth at 300 ppm (Botrytis cinerea [1]) | inhibition of growth at 300 ppm (Colletotrichum capsici) | inhibition of growth at 300 ppm (Parastagonospora nodorum) | inhibition of growth at 300 ppm (Botrytis cinerea [2])

CC(C)(COC(=O)c1cccc(F)c1)NC(=O)c1cnc2[nH]ccc2c1 [Compound 146, 2-methyl-2-(1H-pyrrolo[2,3-b]pyridine-5-carboxamido)propyl 3-fluorobenzoate]
≥ 70%: inhibition of growth at 300 ppm (Phytophthora infestans) | inhibition of growth at 300 ppm (Venturia Inequalis) | pest or weed control at 500 ppm (Phakopsora pachyrhizi)

CN1CCOc2cc(C(=O)NC(C)(C)Cc3ccccc3)cnc21 [Compound 82, 4-methyl-N-(2-methyl-1-phenylpropan-2-yl)-3,4-dihydro-2H-pyrido[3,2-b] [1,4]oxazine-7-carboxamide]
≥ 70%: inhibition of growth at 300 ppm (Botrytis cinerea [1]) | inhibition of growth at 300 ppm (Parastagonospora nodorum) | inhibition of growth at 300 ppm (Botrytis cinerea [2])

COc1nc2c(cc1C(=O)NC1(c3ccccc3)CC1)CCC2 [Compound 252, 2-methoxy-N-(1-phenylcyclopropyl)-6,7-dihydro-5H-cyclopenta[b]pyridine-3-carboxamide]
≥ 70%: inhibition of growth at 300 ppm (Botrytis cinerea [1]) | inhibition of growth at 300 ppm (Colletotrichum capsici) | inhibition of growth at 300 ppm (Phytophthora infestans) | inhibition of growth at 300 ppm (Parastagonospora nodorum) | inhibition of growth at 300 ppm (Botrytis cinerea [2])
